Calls of active or inactive are those of the source.
Tests used:
Troponin, cardiac muscle = Troponin, cardiac muscle (Homo sapiens, UniProt P19429+P45379+P63316); assay: Fluorescence-based biochemical high throughput dose response assay for activators of the calcium sensitivity of cardiac Regulated Thin Filaments (RTF). [Related pubchem assays (depositor defined):AID493008, AID493018, AID504382, AID504383]; type: protein-complex assay
[1] = target: T1, Mannose-6-phosphate isomerase (Homo sapiens, UniProt P34949); assay: PMI enzyme inhibitors, confirmation, biochemical, fluorescence intensity (AID 1535)
T1 sequence (P34949 whole entry): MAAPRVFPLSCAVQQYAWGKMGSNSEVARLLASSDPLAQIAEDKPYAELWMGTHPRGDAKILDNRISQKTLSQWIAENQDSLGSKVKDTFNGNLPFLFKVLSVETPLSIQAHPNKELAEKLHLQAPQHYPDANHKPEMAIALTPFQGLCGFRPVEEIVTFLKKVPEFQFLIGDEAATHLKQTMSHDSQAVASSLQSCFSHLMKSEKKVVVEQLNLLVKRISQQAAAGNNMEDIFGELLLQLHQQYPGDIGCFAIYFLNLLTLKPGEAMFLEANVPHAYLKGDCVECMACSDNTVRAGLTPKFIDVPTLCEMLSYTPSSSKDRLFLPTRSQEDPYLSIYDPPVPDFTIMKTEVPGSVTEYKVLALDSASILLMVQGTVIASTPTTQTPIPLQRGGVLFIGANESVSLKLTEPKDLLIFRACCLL

Phosphomannomutase 2 = Phosphomannomutase 2 (Homo sapiens, UniProt O15305); assay: Counter screen SAR assay for PMM2 inhibitors via a fluorescence intensity assay. [Related pubchem assays (depositor defined):AID1545, AID1574]
Chain of Phosphomannomutase 2 (O15305 whole entry): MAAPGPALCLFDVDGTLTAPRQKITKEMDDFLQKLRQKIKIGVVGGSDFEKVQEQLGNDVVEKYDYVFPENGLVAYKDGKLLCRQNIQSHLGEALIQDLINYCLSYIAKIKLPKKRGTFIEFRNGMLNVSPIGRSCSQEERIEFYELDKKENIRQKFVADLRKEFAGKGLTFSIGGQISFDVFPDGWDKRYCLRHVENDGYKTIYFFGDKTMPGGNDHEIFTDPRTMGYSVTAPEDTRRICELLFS

[2] = target: T2, Short transient receptor potential channel 4 (Mus musculus, UniProt Q9QUQ5); assay: TRPC4 positive allosteric modulators, dose response, cell-based, HEK293 TRPC4/mu-opioid, Fluo-4 calcium, EC20 DAMGO (AID 434941); type: functional
T2 sequence (Q9QUQ5 whole entry): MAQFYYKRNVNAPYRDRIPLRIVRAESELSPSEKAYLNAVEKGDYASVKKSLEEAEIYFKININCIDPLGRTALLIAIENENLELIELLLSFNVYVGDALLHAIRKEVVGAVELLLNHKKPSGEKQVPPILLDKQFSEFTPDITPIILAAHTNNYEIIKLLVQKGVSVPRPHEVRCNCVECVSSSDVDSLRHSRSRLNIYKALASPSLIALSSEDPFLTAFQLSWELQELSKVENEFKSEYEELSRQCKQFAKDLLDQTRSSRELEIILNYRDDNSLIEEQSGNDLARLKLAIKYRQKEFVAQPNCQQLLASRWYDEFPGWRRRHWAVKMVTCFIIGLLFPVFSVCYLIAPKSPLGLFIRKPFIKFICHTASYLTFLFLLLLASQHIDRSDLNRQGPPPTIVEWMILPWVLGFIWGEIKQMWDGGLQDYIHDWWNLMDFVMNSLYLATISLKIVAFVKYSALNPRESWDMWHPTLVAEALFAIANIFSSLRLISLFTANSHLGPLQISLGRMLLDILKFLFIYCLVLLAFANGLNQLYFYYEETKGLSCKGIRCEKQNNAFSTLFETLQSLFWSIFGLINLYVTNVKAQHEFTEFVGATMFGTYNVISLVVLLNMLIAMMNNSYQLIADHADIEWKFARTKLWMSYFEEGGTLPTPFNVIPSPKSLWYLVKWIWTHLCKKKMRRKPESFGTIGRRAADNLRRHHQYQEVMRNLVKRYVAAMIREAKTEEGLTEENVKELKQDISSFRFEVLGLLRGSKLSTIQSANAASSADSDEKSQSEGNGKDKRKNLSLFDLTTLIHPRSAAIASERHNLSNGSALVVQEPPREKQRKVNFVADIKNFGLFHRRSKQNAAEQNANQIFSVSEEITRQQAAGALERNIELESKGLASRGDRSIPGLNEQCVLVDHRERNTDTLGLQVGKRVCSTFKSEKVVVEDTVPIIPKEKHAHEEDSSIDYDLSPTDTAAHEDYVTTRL

Coagulation factor XII = target: T3, Coagulation factor XII (Homo sapiens, UniProt P00748); type: functional;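 also: activated factor XIIa alpha cleaving a fluorogenic AMC peptide substrate; inhibitor potency from loss of enzyme activity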
T3 sequence (P00748 whole entry): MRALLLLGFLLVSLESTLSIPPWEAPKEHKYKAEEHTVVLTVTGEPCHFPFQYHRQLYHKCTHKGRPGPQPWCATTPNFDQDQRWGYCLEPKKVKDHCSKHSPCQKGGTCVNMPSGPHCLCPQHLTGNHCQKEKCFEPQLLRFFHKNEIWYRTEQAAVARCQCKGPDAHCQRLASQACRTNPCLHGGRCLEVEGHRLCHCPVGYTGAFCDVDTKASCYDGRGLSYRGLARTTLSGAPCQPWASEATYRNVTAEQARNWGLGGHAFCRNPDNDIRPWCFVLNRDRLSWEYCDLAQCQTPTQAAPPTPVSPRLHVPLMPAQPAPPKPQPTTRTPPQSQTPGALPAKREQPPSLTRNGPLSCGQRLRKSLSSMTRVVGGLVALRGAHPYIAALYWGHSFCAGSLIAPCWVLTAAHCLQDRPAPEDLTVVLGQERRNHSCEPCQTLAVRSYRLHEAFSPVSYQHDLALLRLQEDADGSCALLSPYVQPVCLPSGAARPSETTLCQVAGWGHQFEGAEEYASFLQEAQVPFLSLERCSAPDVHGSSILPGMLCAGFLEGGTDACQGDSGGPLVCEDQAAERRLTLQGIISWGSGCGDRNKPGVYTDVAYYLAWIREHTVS

Fatty acid synthase [3] = target: T4, Fatty acid synthase (Homo sapiens, UniProt P49327); assay: FAS thioesterase domain inhibitors, dose response, biochemical, endpoint fluorescence intensity, uHTS hits (AID 624327); type: functional;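 also: fluorescence from hydrolysis of an O-methyl fluorescein acyl ester substrate by the enzyme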
T4 sequence (P49327 whole entry, the tested form may be a part): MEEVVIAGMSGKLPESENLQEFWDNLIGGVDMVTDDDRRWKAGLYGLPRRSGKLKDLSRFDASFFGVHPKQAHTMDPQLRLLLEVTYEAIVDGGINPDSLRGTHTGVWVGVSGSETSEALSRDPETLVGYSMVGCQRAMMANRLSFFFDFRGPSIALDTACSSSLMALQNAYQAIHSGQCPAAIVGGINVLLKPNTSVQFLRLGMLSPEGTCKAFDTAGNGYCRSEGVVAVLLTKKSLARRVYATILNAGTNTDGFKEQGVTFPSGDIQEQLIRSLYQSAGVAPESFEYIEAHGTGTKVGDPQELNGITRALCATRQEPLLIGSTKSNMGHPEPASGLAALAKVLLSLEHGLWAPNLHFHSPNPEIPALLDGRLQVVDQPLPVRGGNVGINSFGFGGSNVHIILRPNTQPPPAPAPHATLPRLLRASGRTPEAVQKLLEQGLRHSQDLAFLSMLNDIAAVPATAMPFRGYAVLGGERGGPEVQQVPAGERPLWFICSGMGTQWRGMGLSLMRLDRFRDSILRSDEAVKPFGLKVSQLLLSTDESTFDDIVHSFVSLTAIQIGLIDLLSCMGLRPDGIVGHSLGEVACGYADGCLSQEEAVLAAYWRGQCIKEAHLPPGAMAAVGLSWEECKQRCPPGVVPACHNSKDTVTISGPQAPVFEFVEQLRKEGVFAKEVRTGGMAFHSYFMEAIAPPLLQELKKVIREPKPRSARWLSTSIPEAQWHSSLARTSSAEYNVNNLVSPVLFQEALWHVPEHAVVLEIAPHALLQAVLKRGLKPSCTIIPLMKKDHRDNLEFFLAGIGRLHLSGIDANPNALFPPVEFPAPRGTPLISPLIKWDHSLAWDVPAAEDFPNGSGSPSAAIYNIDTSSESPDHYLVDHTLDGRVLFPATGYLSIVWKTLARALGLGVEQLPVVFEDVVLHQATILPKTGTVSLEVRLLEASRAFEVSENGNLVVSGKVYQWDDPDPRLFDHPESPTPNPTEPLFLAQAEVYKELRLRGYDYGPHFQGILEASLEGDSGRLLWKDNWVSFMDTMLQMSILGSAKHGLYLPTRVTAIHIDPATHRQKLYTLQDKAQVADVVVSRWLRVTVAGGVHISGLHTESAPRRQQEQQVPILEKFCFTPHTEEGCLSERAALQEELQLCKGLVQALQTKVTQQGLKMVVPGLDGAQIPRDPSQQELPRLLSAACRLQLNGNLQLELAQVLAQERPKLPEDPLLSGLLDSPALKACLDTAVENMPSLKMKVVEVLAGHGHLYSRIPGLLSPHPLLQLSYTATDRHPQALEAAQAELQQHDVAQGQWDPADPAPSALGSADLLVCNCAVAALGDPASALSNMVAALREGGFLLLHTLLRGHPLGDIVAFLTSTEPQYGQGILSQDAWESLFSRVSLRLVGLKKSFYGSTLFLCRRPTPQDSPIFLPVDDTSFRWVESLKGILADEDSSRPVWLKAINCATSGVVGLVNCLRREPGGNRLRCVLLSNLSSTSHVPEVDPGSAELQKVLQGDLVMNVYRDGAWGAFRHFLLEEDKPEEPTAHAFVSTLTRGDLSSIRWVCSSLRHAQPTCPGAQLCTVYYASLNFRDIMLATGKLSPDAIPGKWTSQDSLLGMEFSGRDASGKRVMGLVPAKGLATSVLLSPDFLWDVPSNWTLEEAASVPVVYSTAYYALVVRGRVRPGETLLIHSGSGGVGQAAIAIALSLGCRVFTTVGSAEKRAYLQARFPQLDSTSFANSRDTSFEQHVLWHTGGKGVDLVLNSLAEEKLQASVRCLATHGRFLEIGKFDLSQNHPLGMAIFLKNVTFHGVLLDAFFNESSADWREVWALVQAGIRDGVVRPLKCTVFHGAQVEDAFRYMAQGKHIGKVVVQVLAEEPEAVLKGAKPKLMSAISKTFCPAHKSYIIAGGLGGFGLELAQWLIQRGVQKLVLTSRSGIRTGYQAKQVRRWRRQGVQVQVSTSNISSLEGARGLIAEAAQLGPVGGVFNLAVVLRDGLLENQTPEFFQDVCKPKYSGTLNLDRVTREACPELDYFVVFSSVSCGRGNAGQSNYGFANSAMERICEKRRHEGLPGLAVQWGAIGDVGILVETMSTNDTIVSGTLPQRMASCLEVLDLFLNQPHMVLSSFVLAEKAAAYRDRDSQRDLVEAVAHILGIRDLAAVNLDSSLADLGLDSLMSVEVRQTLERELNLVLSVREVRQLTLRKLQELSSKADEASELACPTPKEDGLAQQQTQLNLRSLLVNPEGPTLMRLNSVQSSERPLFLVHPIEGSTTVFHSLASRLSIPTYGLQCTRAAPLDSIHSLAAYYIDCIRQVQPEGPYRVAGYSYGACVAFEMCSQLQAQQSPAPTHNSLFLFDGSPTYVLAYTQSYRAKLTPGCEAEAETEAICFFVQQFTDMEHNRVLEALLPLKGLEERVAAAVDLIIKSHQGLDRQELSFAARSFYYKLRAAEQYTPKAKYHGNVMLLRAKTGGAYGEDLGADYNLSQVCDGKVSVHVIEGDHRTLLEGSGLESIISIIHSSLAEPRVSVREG

[4] = C. albicans growth with fluconazole, confirmation, fluorescence, retest (AID 2467); type: functional, cell-based
[5] = NIH-3T3 fibroblast cytotoxicity, dose response, cytotoxicity control, cell-based, fluorescence, Alamar Blue, secondary assay (AID 2327); type: functional;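 also: NIH-3T3 mouse fibroblasts cultured with fluconazole at 8 µg/mL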
Fatty acid synthase [6] = target: T4, Fatty acid synthase; assay: FAS thioesterase domain inhibitors, dose response, biochemical, kinetic fluorescence intensity (AID 624326); type: functional;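 also: rate of fluorescence rise from hydrolysis of a fluorogenic O-methyl fluorescein ester substrate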
Cytochrome P450 3A4 = Cytochrome P450 3A4 (Homo sapiens, UniProt P08684);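 also: CYP3A4 tested as one member of a cytochrome P450 panel screen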
X-box-binding protein 1 = X-box-binding protein 1 (Homo sapiens, UniProt P17861); type: functional, Cricetulus griseus;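 also: confirmatory dose-response counter-screen serving a CHOP assay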
[7] = target: DNA damage-inducible transcript 3 protein (Mus musculus, UniProt P35639); type: functional, Cricetulus griseus
Ion channel NompC = Ion channel NompC (Danio rerio, UniProt Q7T1G6); assay: Dose response cell-based high-throughput screening assay for agonists of the transient receptor potential channel N1 (TRPN1). [Related pubchem assays (depositor defined):AID1424, AID1448]; type: functional
Mucolipin-3 = target: T5, Mucolipin-3 (Homo sapiens, UniProt Q8TDD5); assay: Fluorescence counterscreen assay for […] agonists: dose response cell-based high-throughput screening assay to identify agonists of the transient receptor potential channel ML3 (TRPML3). [Related pubchem assays: 1424, 1448 ]; type: functional
T5 sequence (Q8TDD5 whole entry): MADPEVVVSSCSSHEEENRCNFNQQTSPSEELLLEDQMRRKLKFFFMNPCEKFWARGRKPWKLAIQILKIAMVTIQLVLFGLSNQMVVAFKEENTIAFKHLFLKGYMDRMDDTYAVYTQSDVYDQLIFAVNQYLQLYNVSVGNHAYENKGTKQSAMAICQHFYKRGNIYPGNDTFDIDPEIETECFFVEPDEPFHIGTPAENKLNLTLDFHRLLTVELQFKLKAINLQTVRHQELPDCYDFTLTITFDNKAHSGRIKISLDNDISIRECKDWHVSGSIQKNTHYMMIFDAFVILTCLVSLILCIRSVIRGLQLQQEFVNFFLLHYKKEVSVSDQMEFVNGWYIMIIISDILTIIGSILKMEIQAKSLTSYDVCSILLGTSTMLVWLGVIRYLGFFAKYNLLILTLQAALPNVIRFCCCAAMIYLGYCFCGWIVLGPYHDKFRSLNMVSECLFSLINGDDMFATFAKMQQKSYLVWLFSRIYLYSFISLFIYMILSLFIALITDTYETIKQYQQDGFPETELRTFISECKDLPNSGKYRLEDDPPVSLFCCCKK

INS1 = assay: beta cell apoptosis inhibitors, cytokine rescue, dose response, luminescence, retest (AID 449756); type: functional, cell-based; conditions: Rattus norvegicus;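 also: cell death triggered by IL-1 beta plus TNF-alpha plus IFN-gamma mixture; protective hits raise ATP signal compared with cytokine alone wells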
[8] = HepG2 cell cytotoxicity, dose response, cytotoxicity control for Shn3 inhibitor project, CellTiter-Glo, cherry-picked (AID 624134); type: functional, cell-based
[9] = target: E3 ubiquitin-protein ligase Mdm2/Protein Mdm4 (Homo sapiens, UniProt O15151+Q00987); assay: Mdm2-MdmX interaction inhibitors, dose response, luminescence detection (AID 504593); type: functional
Chain of E3 ubiquitin-protein ligase Mdm2/Protein Mdm4 (Q00987 whole entry): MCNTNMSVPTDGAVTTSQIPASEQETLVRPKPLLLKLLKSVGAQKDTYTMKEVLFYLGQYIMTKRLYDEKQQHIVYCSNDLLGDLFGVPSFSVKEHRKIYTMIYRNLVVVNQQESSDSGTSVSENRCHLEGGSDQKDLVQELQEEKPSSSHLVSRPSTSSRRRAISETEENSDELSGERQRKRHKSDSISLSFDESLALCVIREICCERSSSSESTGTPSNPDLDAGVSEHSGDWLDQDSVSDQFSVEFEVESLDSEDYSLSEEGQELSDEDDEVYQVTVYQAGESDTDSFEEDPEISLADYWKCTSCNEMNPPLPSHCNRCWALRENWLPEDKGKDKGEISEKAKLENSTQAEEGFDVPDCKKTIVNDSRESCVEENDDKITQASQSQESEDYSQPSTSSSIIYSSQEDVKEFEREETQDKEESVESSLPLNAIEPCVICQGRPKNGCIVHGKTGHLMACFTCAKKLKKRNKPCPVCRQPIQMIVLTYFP
Chain of E3 ubiquitin-protein ligase Mdm2/Protein Mdm4 (O15151 whole entry): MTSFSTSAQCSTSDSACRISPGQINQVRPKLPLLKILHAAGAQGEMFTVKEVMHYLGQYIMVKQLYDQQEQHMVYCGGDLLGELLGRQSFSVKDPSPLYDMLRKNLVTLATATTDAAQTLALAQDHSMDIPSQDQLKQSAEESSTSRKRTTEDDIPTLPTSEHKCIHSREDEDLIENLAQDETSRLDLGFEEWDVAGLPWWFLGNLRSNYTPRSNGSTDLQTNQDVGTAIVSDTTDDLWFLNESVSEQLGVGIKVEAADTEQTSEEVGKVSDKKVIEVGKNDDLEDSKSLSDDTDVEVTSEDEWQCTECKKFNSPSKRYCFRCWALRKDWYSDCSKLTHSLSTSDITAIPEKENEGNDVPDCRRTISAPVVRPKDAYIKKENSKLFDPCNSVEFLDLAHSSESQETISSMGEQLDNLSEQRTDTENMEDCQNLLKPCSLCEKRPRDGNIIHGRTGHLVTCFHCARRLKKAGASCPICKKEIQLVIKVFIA

[10] = control 3'UTR Renilla luciferase suppression, dose response, counter-screen for Shn3 inhibitor project, cell-based, Clone20-Shn3RL, cherry-picked (AID 624133); type: functional
[11] = Shn3 3'UTR reporter inhibitors, dose response, cell-based, Clone20 osteoblasts, firefly luciferase, cherry-picked (AID 624132); type: functional;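 also: firefly luciferase luminescence from reporter carrying the Shn3 3'UTR in osteoblasts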
[12] = target: Alkaline phosphatase, tissue-nonspecific isozyme (Homo sapiens, UniProt P05186); assay: human TNAP enzyme inhibitors, SAR follow-up, biochemical, luminescent, dose response (AID 1056)
[13] = target: Alkaline phosphatase, placental type (Homo sapiens, UniProt P05187); assay: PLAP enzyme inhibitors, confirmation, biochemical, luminescence (AID 1512); type: functional
Chain of Alkaline phosphatase, placental type (P05187 whole entry): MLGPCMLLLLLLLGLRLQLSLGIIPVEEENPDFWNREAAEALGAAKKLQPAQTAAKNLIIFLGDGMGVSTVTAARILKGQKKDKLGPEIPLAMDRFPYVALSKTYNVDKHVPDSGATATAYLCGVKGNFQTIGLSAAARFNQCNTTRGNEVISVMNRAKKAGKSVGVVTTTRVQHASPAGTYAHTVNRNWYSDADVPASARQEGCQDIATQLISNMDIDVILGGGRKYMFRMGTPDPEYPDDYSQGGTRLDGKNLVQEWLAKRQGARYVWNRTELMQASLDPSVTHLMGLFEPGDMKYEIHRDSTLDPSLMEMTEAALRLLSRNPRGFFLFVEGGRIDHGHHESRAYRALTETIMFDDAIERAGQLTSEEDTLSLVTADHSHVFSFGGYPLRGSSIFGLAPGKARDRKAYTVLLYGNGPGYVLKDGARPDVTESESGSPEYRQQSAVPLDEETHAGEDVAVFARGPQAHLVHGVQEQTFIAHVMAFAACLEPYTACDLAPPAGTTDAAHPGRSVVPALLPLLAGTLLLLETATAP

[14] = target: Voltage-dependent T-type calcium channel subunit alpha-1H (Homo sapiens, UniProt O95180); assay: Cav3.2 T-type channel inhibitors, synthesized analogs, SAR follow-up, cell-based, synthetic library set 2, HEK293 HH8, Fluo-4 (AID 493023); type: functional
[15] = target: T6, Kappa-type opioid receptor (Homo sapiens, UniProt P41145); assay: SAR analysis of small molecule antagonists of the kappa opioid receptor via a luminescent beta-arrestin assay - Set 6. [Related pubchem assays (depositor defined):AID1777, AID1778, AID1785, AID1786, AID1966, AID2133, AID2136, AID2285]; type: functional
T6 sequence (P41145 whole entry): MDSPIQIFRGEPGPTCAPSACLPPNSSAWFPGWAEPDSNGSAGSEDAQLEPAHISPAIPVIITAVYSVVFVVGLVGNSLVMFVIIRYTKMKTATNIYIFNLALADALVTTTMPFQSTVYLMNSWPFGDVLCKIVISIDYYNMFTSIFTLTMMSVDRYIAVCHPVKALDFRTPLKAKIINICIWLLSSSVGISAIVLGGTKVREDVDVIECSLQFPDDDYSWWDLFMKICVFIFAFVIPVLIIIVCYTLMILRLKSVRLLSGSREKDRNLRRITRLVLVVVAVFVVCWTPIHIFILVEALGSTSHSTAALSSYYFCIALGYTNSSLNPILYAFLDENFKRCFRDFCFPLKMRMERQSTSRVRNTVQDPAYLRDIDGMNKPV

[16] = target: T6, Kappa-type opioid receptor; assay: SAR analysis of small molecule antagonists of the kappa opioid receptor via a luminescent beta-arrestin assay - Set 3. [Related pubchem assays (depositor defined):AID1777, AID1778, AID1785, AID1786, AID1966, AID2133, AID2136, AID2285, AID2495]; type: functional
[17] = target: Delta-type opioid receptor (Homo sapiens, UniProt P41143); assay: SAR Analysis of Antagonists of the DOR Receptor using an Image-Based Assay - Set 3. [Related pubchem assays (depositor defined):AID1777, AID1785]; type: functional;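 also: U2OS cells expressing DOR1 and beta-arrestin GFP stimulated with 100 nM SNC80; imaging of GFP-tagged beta-arrestin moving into spots after receptor activation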
Chain of Delta-type opioid receptor (P41143 whole entry): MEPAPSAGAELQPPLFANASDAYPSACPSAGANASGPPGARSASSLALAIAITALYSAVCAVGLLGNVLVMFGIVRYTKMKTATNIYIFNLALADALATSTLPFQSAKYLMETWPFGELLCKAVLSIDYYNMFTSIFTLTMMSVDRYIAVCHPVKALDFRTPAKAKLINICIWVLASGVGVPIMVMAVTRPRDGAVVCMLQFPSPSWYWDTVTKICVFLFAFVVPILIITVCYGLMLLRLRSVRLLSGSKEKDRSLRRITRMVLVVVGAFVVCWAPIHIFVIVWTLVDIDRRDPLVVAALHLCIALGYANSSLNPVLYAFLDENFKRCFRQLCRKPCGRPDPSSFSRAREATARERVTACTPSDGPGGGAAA

[18] = target: T6, Kappa-type opioid receptor; assay: SAR analysis of Antagonists of the Kappa Opioid Receptor (KOR) using an Image-Based Assay - Set 4. [Related pubchem assays (depositor defined):AID1777, AID1785]; type: functional
Mu-type opioid receptor = Mu-type opioid receptor (Homo sapiens, UniProt P35372); assay: SAR Analysis of Antagonists of the MOR Receptor using an Image-Based Assay - Set 3. [Related pubchem assays (depositor defined):AID1777, AID1785, AID1786, AID1966, AID2133, AID2136, AID2284, AID2285, AID2420]; type: functional

Q: For Cc1cc(S(=O)(=O)N2CCCC(C(=O)Nc3ccc(C(=O)O)cc3)C2)ccc1Cl (centres undefined), which EC50 (Troponin, cardiac muscle) is on record?
A: > 71.5 µM (inactive)

Q: What does the source list for CCOC(=O)c1ccc(NC2Nc3cc(C)nn3S2)cc1 (centres undefined)?
A: IC50 [1]: > 50 µM (inactive); IC50 (Phosphomannomutase 2): > 100 µM (inactive)

Q: Which EC50 [2] does the source give for Cc1cc(-c2ccc(C)c(S(=O)(=O)N3CCN(C(=O)c4ccco4)CC3)c2)on1 here?
A: 6.68 µM (active)

Q: Which IC50 (Coagulation factor XII) does the source give for Cc1cc(C)c(C)c(S(=O)(=O)ON2C(=O)c3ccccc3C2=O)c1C here?
A: 12.9 µM (active)

Q: What about the IC50 (Fatty acid synthase [3]) of the same compound?
A: 610 nM (active)

Q: And the EC50 [4]?
A: 4.78 µM (active)

Q: What about the EC50 [5] of the same compound?
A: 3.15 µM (inconclusive)

Q: And the IC50 (Fatty acid synthase [6])?
A: 417 nM (active)

Q: And the AC50 (Cytochrome P450 3A4)?
A: 39.8 µM (inconclusive)

Q: What about the “Absolute IC50 (XBP1)” value (X-box-binding protein 1) of the same compound?
A: 10 µM

Q: What about the “Absolute IC50 (CHOP)” value [7] of the same compound?
A: 10 µM

Q: With N#C/C(=C(/O)C(Cl)(Cl)Cl)c1nc2ccccc2[nH]1 as the compound, how does the EC50 (Ion channel NompC) read?
A: > 29.9 µM (inactive)

Q: What about the EC50 (Mucolipin-3) of the same compound?
A: > 29.9 µM (not active)

Q: Which results are given for CCOc1cc(N2CCOCC2)c(OCC)cc1NC(=O)COc1cccc2cccnc12?
A: AC50 (INS1): 3.83 µM (active); AC50 [8]: 8.92 µM (active); EC50 [4]: > 38 µM (not active); IC50 [9]: 4.99 µM (active); AC50 [10]: 5.04 µM (active); EC50 [5]: > 150 µM (inactive); AC50 [11]: 2.41 µM (active)

Q: With COc1ccc(C(=O)CSc2nc3cc(C)c(C)cc3[nH]2)cc1OC as the compound, how does the IC50 [12] read?
A: > 100 µM (inactive)

Q: And the IC50 [13]?
A: > 100 µM (inactive)

Q: For CC(C)(C)CCN1CCC[C@H](NC(=O)COc2ccc(F)cc2Cl)C1, which EC50 [14] is on record?
A: 2.4 µM (active)

Q: With O=C(Cn1c(=O)c2cccn2c2cccnc21)NCCCN1CCN(c2ccc(Cl)cc2)CC1 as the compound, how does the IC50 [15] read?
A: 6.93 µM (active)

Q: And the IC50 [16]?
A: 3.44 µM (active)

Q: What about the IC50 [17] of the same compound?
A: > 32 µM (inactive)

Q: What about the IC50 [18] of the same compound?
A: 96 nM (active)

Q: What about the IC50 (Mu-type opioid receptor) of the same compound?
A: > 32 µM (inactive)
